Measured values: patent USRE42700E1, “Induction of apoptosis in cancer cells” (Sanford-Burnham Medical Research Institute, priority 2001, dated 2011)

Legend:
RARγ = RARγ (Homo sapiens, UniProt P13631); experiment: activation of RARγ on the (TREpal)2-tk-CAT reporter construct; type: cell-based
[1] = tested on: human acute megakaryocytic leukemia cell line M07e; experiment: M07e apoptosis quantification; type: cell-based
Description: Apoptosis Quantification: Staining of apoptotic cells was performed as described by Gavreli, Y., et al., (J. Cell. Biol. 119: 493-501 (1992)) and Whitacre, C. M., et al., (Cancer Res. 55: 3697-3701 (1995)). After 3-Cl-AHPC treatment, cells were harvested, washed with PBS and resuspended at 1×10^6 cells/ml. Cell suspensions (50 μl) were stained with […] of acridine orange solution ([…]) in PBS in the dark. Cells displaying fragmented DNA were detected using a fluorescent microscope. Apoptotic cells were also detected using a kit. Cells that incorporated fluorescein labeled deoxyuridine triphosphate were detected using flow cytometry.

[2] = tested on: leukemic blasts from patients (AML or CML in blast crisis); experiment: proliferation of patient leukemic blasts; type: cell-based; conditions: Homo sapiens
Description: Cell Growth: IL-3-transfected M07e cells have been described by Thacker, D. J., et al., Leukemia 8: 871-877 (1994). Cells were grown in RPMI supplemented with 5 percent heat-inactivated fetal bovine serum (FBS) and 25 μg/ml gentamycin in a […], 5% CO2, and 100% humidity environment. Leukemic cells were obtained from patients who met the criteria for the diagnosis of AML or CML in blast crisis (see Table 1). Studies were approved by the Wayne State University Institutional Review Board. Informed consent was obtained from all patients. Leukemic blasts from patients were isolated using Ficoll hypaque. Cells at the interface between plasma and red blood cells were diluted with sterile PBS, then layered over Ficoll hypaque (1.077 density), and the leukemic cells collected at the interface. The sample to be studied represented greater than 90% blasts. The patient leukemia samples were grown in RPMI medium supplemented with 10% FBS, gentamycin (25 μg/ml), IL-3 (20 ng/ml), SCF (25 ng/ml), GM-CSF (20 ng/ml) and G-CSF (20 ng/ml). Cell growth was assessed using a cell proliferation kit.

[3] = tested on: leukemic blasts from patient 1; experiment: leukemia colony formation in methylcellulose; type: cell-based, human; conditions: 14 days
Description: Leukemia Colony Formation: Leukemic blasts (1×10^5 cells) from patient 1 (Table 1) were isolated as described above and cultured in methylcellulose supplemented with 20% FCS, SCF, and IL-3, GM-CSF and G-CSF at a final concentration of 10 ng per ml, cells were incubated for 14 days at 37° C. in a 5% CO2 humidified atmosphere in the presence and absence of 3-Cl-AHPC after which time colonies (>40 cells) were counted.

[4] = tested on: committed marrow stem cells (CFU-GM); experiment: CFU-GM colony formation (species not stated); type: cell-based; conditions: concentrations which completely inhibited leukemic colony formation
Description: (§1) CFU-GM Colony Formation: The CFU-GM colony assay was performed as described in Parchment et al., (J. Natl. Cancer Inst. 86: 273-280 (1994)).

[5] = CFU-GM colony formation, mouse bone marrow; type: cell-based; conditions: mouse, bone marrow CFU-GM progenitor cells
Description: as §1

mouse CFU-GM = experiment: CFU-GM colony formation, mouse bone marrow; type: cell-based
Description: as §1

[6] = tested on: ERK, p38 and JNK kinases in M07e and patient leukemic cells; experiment: activation of MAPK pathways (phospho-p38, phospho-ERK, phospho-JNK Western blots); type: cell-based, human; conditions: 1 μM
Description: Western Blots: Western blots were performed according to the protocol of Sheikh, M. S., et al., (Oncogene, 9: 3407-3415 (1994)). Logarithmically growing cells were treated with 3-Cl-AHPC for various times and cells were harvested and lysed in Laemmli lysis buffer (0.5 M Tris-HCl, pH 6.8, 0.002M EDTA, 10% glycerol, 10% sodium dodecyl sulfate (SDS), and 5% β-mercaptoethanol). Protein lysates (50 μg/lane) were electrophoresed on 12% SDS-polyacrylamide gels and transferred to nitrocellulose membranes. Membranes were blocked with 5% nonfat dried milk in PBS/0.5% Tween 20 and then incubated with the appropriate antibodies. Horseradish peroxidase-conjugated rabbit anti-mouse IgG was used as the secondary antibody, and bands were developed using the Amersham ECL non-radioactive method.

Murine AML 1498 cells = experiment: murine AML 1498 implanted intravenously in C57BL/6 mice
Text: Tumor Maintenance: Murine AML1498 cells were maintained in the mouse strain of origin (C57BL/6) and transplanted into this same inbred strain chemotherapy trials. Individual mouse body weights for each experiment were within five grams, and all mice were more than 20 grams (mean) at the start of therapy. Mice were supplied food and water ad libitum.
Treatment was started the day after implantation of AML cells.
End Points for Assessing Antitumor Activity: The following quantitative endpoints were used to assess antitumor activity
a) Percent Increase in Lifespan (% ILS): For leukemic mice: • % ILS=(T−C)/C×100; in which C=median day of death of control group and T=median day of death of treated group. Survival was the endpoint; with moribund mice sacrificed. Cause of death was verified by necropsy.
b) Calculation of Tumor Cell Kill: For leukemic survival trials, the log10 cell kill was calculated from the following formula:
[formula] where T is median day of death for treated group and C is median day of death for control group (Corbett, T. H., et al., Invest. New Drugs, 17: 17-27 (1999) and Teicher, B. A., In vivo tumor response end points, In Tumor Models in Cancer Research, B. Teicher, editor, Humana Press Inc./Totowa, N.J., pp. 593-616 (2001)). Td is determined from differences in the median days of death of the titered control groups.

ZR-75 = experiment: apoptosis induction / cell death in breast cancer cells; type: cell-based, human
MDA-MB-468 = experiment: as above; type: cell-based, human
[7] = total dose 80 mg/kg, qd 1-5, 5 × 10^6 cells
[8] = total dose 115 mg/kg, qd 1-5, 5 × 10^6 cells
[9] = total dose 140 mg/kg, qd 1-4, 5 × 10^6 cells

Chain of RARγ (P13631 whole entry, species assumed): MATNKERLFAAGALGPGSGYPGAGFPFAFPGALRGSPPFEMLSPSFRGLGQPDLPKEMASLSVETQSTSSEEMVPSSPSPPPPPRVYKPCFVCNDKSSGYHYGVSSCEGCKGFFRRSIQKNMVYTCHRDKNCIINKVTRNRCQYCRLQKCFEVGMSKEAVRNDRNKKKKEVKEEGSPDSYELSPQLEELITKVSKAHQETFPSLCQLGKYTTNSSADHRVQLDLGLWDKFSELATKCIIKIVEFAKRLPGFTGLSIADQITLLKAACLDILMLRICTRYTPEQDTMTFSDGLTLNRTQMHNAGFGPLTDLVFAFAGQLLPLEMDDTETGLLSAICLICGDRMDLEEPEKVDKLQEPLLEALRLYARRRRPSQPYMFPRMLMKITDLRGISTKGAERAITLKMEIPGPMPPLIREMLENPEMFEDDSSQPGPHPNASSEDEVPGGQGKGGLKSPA

Structure (SMILES): O=C(O)/C=C/c1ccc(-c2ccc(O)c(C34CC5CC(CC(C5)C3)C4)c2)c(Cl)c1 [Example 3-Cl-AHPC, (E)-4-[3-(1-Adamantyl)-4-hydroxyphenyl]-3-chlorocinnamic acid]
- activation of RARγ relative to that of 1.0 μM tRA (RARγ): less than 10%
- apoptosis ([1]; 0.2 μM): no significant increase in apoptosis
- apoptosis ([1]; 0.5 and 1.0 μM): onset of apoptosis
- concentration required to induce apoptosis ([1]; M07e cells): 0.5 µM
- inhibition at 1 µM [2]: 60 to 90%
- concentration for complete inhibition of leukemia colony formation [3]: 600 nM
- IC50 ([3]; Homo sapiens, 336 h, patient 1, read-out: inhibition of leukemia colony formation, ED50 (IC50)): 375 nM
- inhibition of CFU-GM colony formation [4]: 30%
- IC90 [5]: 315 to 794 nM
- toxicity to mouse relative to human CFU-GM (mouse CFU-GM): 30 fold
- activation of ERK, p38 and JNK kinases [6]: inactivation of ERK, p38 and JNK kinases
- animal deaths (Murine AML 1498 cells; 140 mg/kg total dose over four days): no animal deaths
- Body Wt. Loss (Murine AML 1498 cells; [7]): +0.0%
- ILS (Murine AML 1498 cells; [7]): 50%
- Log cell kill (Murine AML 1498 cells; [7]): 2.6
- Mean Body Wt. Loss (Murine AML 1498 cells; [7]): +0.0 g/mouse
- Median Day of Tumor Death (range) (Murine AML 1498 cells; [7]): 9 (8,9,9,9,10)
- ILS (Murine AML 1498 cells; [8]): 83%
- Log cell kill (Murine AML 1498 cells; [8]): 3.3
- Median Day of Tumor Death (range) (Murine AML 1498 cells; [8]): 11 (10,10,11,11,11)
- Mean Body Wt. Loss (Murine AML 1498 cells; total dose 115 mg/kg, qd 1-5, 5 × 10^6 cells, negative = loss): −1.2 g/mouse
- ILS (Murine AML 1498 cells; [9]): 83%
- Log cell kill (Murine AML 1498 cells; [9]): 3.3
- Median Day of Tumor Death (range) (Murine AML 1498 cells; [9]): 11(10,11,11,11,11)
- Mean Body Wt. Loss (Murine AML 1498 cells; total dose 140 mg/kg, qd 1-4, 5 × 10^6 cells, negative = loss): −3.6 g/mouse
- ED50 (concentration that results in 50% cell death) (ZR-75): 700 nM
- ED50 (concentration that results in 50% cell death) (MDA-MB-468): 710 nM
